Legend:
[1] = Acid dissociation constant (pKa) of the compound; type: physicochemical
[2] = target: Urokinase-type plasminogen activator (Homo sapiens, UniProt P00749); experiment: Inhibitory activity against Urokinase-type plasminogen activator

pKa [1] | IC50 [2] [µM] | Structure (SMILES)
11.4 | 7 | N=C(N)c1ccc(N)cc1
7.4 |  | Nc1nc2cc(O)ccc2[nH]1
7.5 | 200 | Nc1nc2ccccc2[nH]1
10.9 | 20 | N=C(N)Nc1ccccc1 [PHENYLGUANIDINE]

Reference: ChEMBL document CHEMBL1133467, “Identification of novel inhibitors of urokinase via NMR-based screening” (J Med Chem, 2000)
